From patent US20170298051A1, “ACTIVATOR OF ADIPONECTIN RECEPTOR” (THE UNIVERSITY OF TOKYO, priority 2013, published 2017)

Legend:
[1] = system: AdipoR1-AMPK-PGC-1α pathways in skeletal muscle; experiment: Skeletal muscle: gene expression, mitochondrial DNA content, TG content, TBARS in mice fed a HF diet; format: in vivo
Method: (§1) Mitochondrial content assays were carried out as described previously^a,b, with slight modifications. For quantification of mitochondrial content, we used mtDNAas previously described^c.
(§2) Real-time PCR was carried out according to the method described previously^a,b,c. Total RNA was prepared from cells or tissues with Trizol (Invitrogen) according to the manufacturer's instructions. We used a real-time PCR method to quantify the mRNAs^19, with slight modifications.
(§3) Skeletal muscle homogenates were extracted, and tissue triglyceride content was determined as described previously^a-c, with some modifications. To investigate whether oxidative stress was increased, we measured lipid peroxidation, a marker of oxidative injury, as represented by plasma thiobarbituric acid reactive substance (TBARS) as described previously^4. Briefly, tissue samples were homogenized in a buffer solution containing 50 mM Tris-HCl (pH 7.4) and 1.15% KCl, and then centrifuged. The supernatant was used for the assay. The levels of lipid peroxidation in tissue homogenate and plasma were measured in terms of the amount of TBARS using the LPO test (Wako Pure Chemical Industries).

[2] = system: mice fed with a HF diet; experiment: Treadmill exercise endurance in mice fed a HF diet; format: in vivo
Method: The treadmill exercise test regimen was 15 m/min for 20 min. Exercise endurance was assessed by dividing 20 min by the number of times a mouse was unable to avoid electrical shocks.

[3] = target: T1, Human AdipoR2 (Homo sapiens, UniProt Q86V24); experiment: Surface plasmon resonance, affinity for AdipoR2; format: binding; details: SPR
T1 construct: made in house
T1 sequence (Q86V24 1-386): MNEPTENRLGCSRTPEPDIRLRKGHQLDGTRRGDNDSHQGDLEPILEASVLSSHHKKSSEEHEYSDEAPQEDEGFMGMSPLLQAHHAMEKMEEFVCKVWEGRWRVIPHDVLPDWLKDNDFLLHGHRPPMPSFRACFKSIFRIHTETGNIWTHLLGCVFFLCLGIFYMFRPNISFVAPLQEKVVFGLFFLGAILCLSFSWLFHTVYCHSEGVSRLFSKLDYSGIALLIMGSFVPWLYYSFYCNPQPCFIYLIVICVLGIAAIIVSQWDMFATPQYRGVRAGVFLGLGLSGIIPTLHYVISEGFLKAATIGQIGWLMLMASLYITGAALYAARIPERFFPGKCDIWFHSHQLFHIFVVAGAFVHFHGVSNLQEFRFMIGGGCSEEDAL
Method: Surface plasmon resonance measurements were performed by a BIAcore X100 system (GE Healthcare) and sensor chip SA (GE Healthcare). Human AdipoR1 and AdipoR2 were expressed with the baculovirus system, and purified to homogeneity. The AdipoR1 and AdipoR2 samples were then reconstituted into egg-phosphatidylcholine liposomes containing biotinyl phosphatidylethanolamine (Avanti), as previously reported^a. Mouse full-length adiponectin was generated as previously described^b,c,d,e. AdipoR1 and AdipoR2 were immobilized onto a sensor chip SA to levels of 2,500-3,000 response units (RU) using standard immobilization protocols (GE Healthcare).
Experiments were performed at 25° C. using AdipoRon (0.49-31.25 μM) and adiponectin (1.5 ng-3.75 μg) and using electrophoresis buffer (20 mM Hepes (pH 7.4), 200 mM NaCl, 10% glycerol, […] surfactant P20). Biacore X100 Evaluation Software was used to determine the equilibrium dissociation constant (KD) of the compound or proteins.

[4] = system: AdipoR1; experiment: Measurement of AMPK phosphorylation ability (Assay 2), C2C12 cells with unrelated or AdipoR1 siRNA; format: cell-based, Mouse
In short: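 Differentiated C2C12 myotubes (DMEM, 2.5% horse serum) transfected with 5 μM siRNA stock via Lipofectamine RNAiMAX, serum-starved next day, then exposed to test compound for 10 min. Plates snap-frozen in liquid nitrogen; pAMPK and total AMPK quantified as in Assay 1.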

[5] = system: mice fed a HF diet; experiment: Effects on lipid metabolism: plasma triglycerides and free fatty acid in mice fed a HF diet; format: in vivo
Method: Mice were 6-10 week of age at the time of the experiment. They were housed in cages and maintained on a 12 hr light-dark cycle.
Plasma glucose levels were determined by using a glucose B-test (Wako Pure Chemical Industries). Plasma insulin was measured with an insulin immunoassay (Shibayagi). Plasma NEFAs (Wako Pure Chemical Industries) were assayed by enzymatic methods.

[6] = system: db/db mice; experiment: TG content, oxidative stress and inflammation in insulin target tissues in db/db mice; format: in vivo
Method: as §1, §2, §3

[7] = system: db/db mice; experiment: Lifespan of db/db mice on a HF diet; format: in vivo; details: daily dose of 30 mg kg−1 body weight
Method: Because the HF diet has been reported to shorten the lifespan, we examined whether orally administered AdipoRon could prolong the shortened lifespan due to a HF diet or not.
That is, the db/db mice were randomly divided into 3 groups: a normal chow group (Normal chow, n=20), high-fat group (High-fat, n=20) and high-fat and additionally AdipoRon group (High-fat+AdipoRon, n=20), which were treated with AdipoRon at a daily dose of 30 mg kg^−1 body weight. The survival rate was recorded daily.

[8] = Adipor1/r2 double-knockout mice
[9] = Adipor1/r2 double-knockout mice fed with a HF diet
[10] = WT mice fed a HF diet, oral 50 mg/kg, 10 days

SMILES: O=C(COc1ccc(C(=O)c2ccccc2)cc1)NC1CCN(Cc2ccccc2)CC1 [Compound 73, 2-(4-benzoyl-phenoxy)-N-(1-benzylpiperidin-4-yl)acetamide]
- effects on mitochondrial genes and mitochondrial DNA content in skeletal muscle [1, 8]: totally obliterated
- levels of type I fiber marker Troponin I (slow) (Tnni1) [1, 8]: but not in Adipor1/r2 double-knockout mice
- effect on Sod2 and TBARS [1, 9]: such effect was not observed
- levels of type I fiber marker Troponin I (slow) (Tnni1) ([1]; WT mice): increased the levels
- mitochondrial DNA content in skeletal muscle ([1]; WT mice): increased mitochondrial DNA content
- TG content in the skeletal muscle ([1]; WT mice fed with a HF diet): decreased TG content
- expression levels of oxidative stress detoxifying genes such as Sod2 ([1]; skeletal muscle, WT mice): significantly increased expression levels
- genes involved in fatty acid oxidation such as Acadm ([1]; skeletal muscle, WT mice): significantly increased
- oxidative stress markers such as TBARS ([1]; skeletal muscle, WT mice): decreased oxidative stress markers
- exercise endurance [2, 9]: but not in Adipor1/r2 double-knockout mice
- exercise endurance ([2]; WT mice fed with a HF diet): significantly increased exercise endurance
- Rmax [3]: 8.6 RU
- Kd ([3]; 25° C., read-out: equilibrium dissociation constant (KD)): 3.1 µM
- pAMPK/AMPK (ratio) siRNA, AdipoR1 siRNA ([4]; AdipoR1 siRNA): 2.68 ratio
- pAMPK/AMPK (ratio) siRNA, unrelated siRNA ([4]; unrelated siRNA): 4.75 ratio
- reduction of plasma TG and FFA [5, 8]: not observed
- plasma concentration of free fatty acid (FFA) [5, 10]: reduced
- plasma concentration of triglycerides (TG) [5, 10]: reduced
- TG content in the liver [6]: significantly reduced TG content
- expression levels of genes encoding pro-inflammatory cytokines in the liver [6]: reduced expression levels
- expression levels of genes encoding pro-inflammatory cytokines, macrophage markers, M1 macrophage markers in the WAT [6]: reduced the expression levels
- expression of Pparα and its target genes in the liver [6]: increased the expression
- expressions of Ppargc1a, Pck1 and G6pc in the liver [6]: significantly decreased expressions
- oxidative stress in the liver [6]: significantly reduced
- TG content and TBARS in skeletal muscles ([6]; oral): decreased TG content and TBARS
- levels of Acadm and Sod2 in skeletal muscles ([6]; oral): significantly increased
- levels of genes involved in mitochondrial biogenesis functions and DNA content in skeletal muscles ([6]; oral): significantly increased
- lifespan [7]: significantly rescued the shortened lifespan
